Data from ChEMBL document CHEMBL1133488 (Bioorg Med Chem Lett, 2000).

Biological target: T1, Scytalone dehydratase (Magnaporthe oryzae (strain 70-15 / FGSC 8958) (Rice blast fungus)(Pyricularia oryzae), UniProt P56221)
T1 sequence (P56221 whole entry): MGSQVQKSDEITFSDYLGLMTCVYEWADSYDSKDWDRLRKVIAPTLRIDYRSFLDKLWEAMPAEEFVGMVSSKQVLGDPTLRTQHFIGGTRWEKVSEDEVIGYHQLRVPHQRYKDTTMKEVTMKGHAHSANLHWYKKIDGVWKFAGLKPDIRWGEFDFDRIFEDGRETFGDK
Experiment: The compound was evaluated for its binding affinity against wild type scytalone dehydratase (SD)
Design: species or system Pyricularia grisea

**Q.** CC(C)NC(=O)c1cc(F)ccc1O was tested. Which Ki did it give?
**A.** 450 nM
